PubChem BioAssay (NCI)
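Interpolation was linear, between the two tested concentrations surrounding the appropriate level; five concentrations were tested over 48 hours in 96-well plates. GI50 = concentration required for 50% inhibition of growth. Definition used: TGI = concentration required for complete inhibition of growth.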

Legend:
Assay in all cases: NCI anticancer screen, dose series, 48 h
U251 CNS = test system: U251 CNS
T-47D breast = test system: T-47D breast
MCF7 breast = test system: MCF7 breast
MOLT-4 leukemia = test system: MOLT-4 leukemia
CCRF-CEM leukemia = test system: CCRF-CEM leukemia
CAKI-1 renal = test system: CAKI-1 renal
SK-MEL-5 melanoma = test system: SK-MEL-5 melanoma
UO-31 renal = test system: UO-31 renal
EKVX NSCLC = test system: EKVX NSCLC
SR leukemia = test system: SR leukemia
NCI/ADR-RES ovarian = test system: NCI/ADR-RES ovarian
MDA-MB-468 breast = test system: MDA-MB-468 breast
SK-MEL-28 melanoma = test system: SK-MEL-28 melanoma
NCI-H522 lung = test system: NCI-H522 lung
HCT-116 colon = test system: HCT-116 colon
786-0 renal = test system: 786-0 renal
HOP-92 NSCLC = test system: HOP-92 NSCLC
BT-549 breast = test system: BT-549 breast
HCT-15 colon = test system: HCT-15 colon
NCI-H460 lung = test system: NCI-H460 lung
OVCAR-8 ovarian = test system: OVCAR-8 ovarian
NCI-H23 lung = test system: NCI-H23 lung
KM12 colon = test system: KM12 colon
MDA-MB-435 = test system: MDA-MB-435
OVCAR-4 ovarian = test system: OVCAR-4 ovarian
UACC-62 melanoma = test system: UACC-62 melanoma
M14 melanoma = test system: M14 melanoma
A549 NSCLC = test system: A549 NSCLC
HL-60(TB) leukemia = test system: HL-60(TB) leukemia
SK-MEL-2 melanoma = test system: SK-MEL-2 melanoma
SNB-19 CNS = test system: SNB-19 CNS
RPMI-8226 leukemia = test system: RPMI-8226 leukemia
SW-620 colon = test system: SW-620 colon
MDA-MB-231 breast = test system: MDA-MB-231 breast
MALME-3M melanoma = test system: MALME-3M melanoma
SF-539 CNS = test system: SF-539 CNS
A498 renal = test system: A498 renal
UACC-257 melanoma = test system: UACC-257 melanoma
NCI-H226 lung = test system: NCI-H226 lung
LOX IMVI melanoma = test system: LOX IMVI melanoma
HT29 colon = test system: HT29 colon
DU-145 prostate = test system: DU-145 prostate
SF-295 CNS = test system: SF-295 CNS
PC-3 prostate = test system: PC-3 prostate
SN12C renal = test system: SN12C renal
SNB-75 CNS = test system: SNB-75 CNS
ACHN renal = test system: ACHN renal
TK-10 renal = test system: TK-10 renal
K-562 leukemia = test system: K-562 leukemia
SF-268 CNS = test system: SF-268 CNS
SK-OV-3 ovarian = test system: SK-OV-3 ovarian
HCC-2998 colon = test system: HCC-2998 colon
OVCAR-3 ovarian = test system: OVCAR-3 ovarian
HS 578T breast = test system: HS 578T breast
IGROV1 ovarian = test system: IGROV1 ovarian
COLO 205 colon = test system: COLO 205 colon
HOP-62 NSCLC = test system: HOP-62 NSCLC
OVCAR-5 ovarian = test system: OVCAR-5 ovarian

**Q.** Which results are given for `N/C(=N\c1nc2ccccc2s1)NC(=O)Nc1ccccc1Br`?
**A.** GI50 (U251 CNS): 116 nM; GI50 (T-47D breast): 51.3 nM; TGI (T-47D breast): > 100000 nM; GI50 (MCF7 breast): 119 nM; TGI (MCF7 breast): > 91600 nM; GI50 (MOLT-4 leukemia): 165 nM; TGI (MOLT-4 leukemia): > 33800 nM; GI50 (CCRF-CEM leukemia): 118 nM; GI50 (CAKI-1 renal): 92.5 nM; GI50 (SK-MEL-5 melanoma): 103 nM; TGI (SK-MEL-5 melanoma): 697 nM; GI50 (UO-31 renal): 184 nM; TGI (UO-31 renal): > 37200 nM; GI50 (EKVX NSCLC): 183 nM; TGI (EKVX NSCLC): > 76900 nM; TGI (SR leukemia): > 41800 nM; GI50 (NCI/ADR-RES ovarian): 10.1 nM; TGI (NCI/ADR-RES ovarian): 40.6 nM; GI50 (MDA-MB-468 breast): 419 nM; TGI (MDA-MB-468 breast): 1660 nM; GI50 (SK-MEL-28 melanoma): 1430 nM; TGI (SK-MEL-28 melanoma): > 100000 nM; GI50 (NCI-H522 lung): < 48.5 nM; TGI (NCI-H522 lung): 169 nM; GI50 (HCT-116 colon): 115 nM; TGI (HCT-116 colon): 3630 nM; GI50 (786-0 renal): 170 nM; TGI (HOP-92 NSCLC): > 28100 nM; GI50 (BT-549 breast): 256 nM; TGI (BT-549 breast): 7180 nM; GI50 (HCT-15 colon): 116 nM; GI50 (NCI-H460 lung): 116 nM; GI50 (OVCAR-8 ovarian): 148 nM; GI50 (NCI-H23 lung): 146 nM; TGI (NCI-H23 lung): > 20600 nM; GI50 (KM12 colon): 125 nM; GI50 (MDA-MB-435): < 37.2 nM; TGI (MDA-MB-435): 76.7 nM; GI50 (OVCAR-4 ovarian): 6210 nM; TGI (OVCAR-4 ovarian): > 23500 nM; GI50 (UACC-62 melanoma): 88.2 nM; TGI (UACC-62 melanoma): > 35100 nM; GI50 (M14 melanoma): 76.8 nM; GI50 (A549 NSCLC): 282 nM; GI50 (HL-60(TB) leukemia): 89.3 nM; GI50 (SK-MEL-2 melanoma): 39.9 nM; TGI (SK-MEL-2 melanoma): 10800 nM; GI50 (SNB-19 CNS): 178 nM; TGI (SNB-19 CNS): > 43100 nM; GI50 (RPMI-8226 leukemia): 149 nM; GI50 (SW-620 colon): 116 nM; TGI (SW-620 colon): > 38100 nM; GI50 (MDA-MB-231 breast): 148 nM; TGI (MDA-MB-231 breast): 1430 nM; GI50 (MALME-3M melanoma): 151 nM; TGI (MALME-3M melanoma): > 25000 nM; GI50 (SF-539 CNS): 69.3 nM; TGI (SF-539 CNS): 195 nM; GI50 (A498 renal): > 38200 nM; TGI (A498 renal): > 58400 nM; TGI (UACC-257 melanoma): > 100000 nM; GI50 (NCI-H226 lung): 723 nM; TGI (NCI-H226 lung): 8730 nM; GI50 (LOX IMVI melanoma): 235 nM; TGI (LOX IMVI melanoma): 8740 nM; GI50 (HT29 colon): 92.1 nM; TGI (HT29 colon): 286 nM; GI50 (DU-145 prostate): 140 nM; GI50 (SF-295 CNS): 104 nM; TGI (SF-295 CNS): 3860 nM; GI50 (PC-3 prostate): 162 nM; TGI (PC-3 prostate): > 53100 nM; GI50 (SN12C renal): 194 nM; GI50 (SNB-75 CNS): 58.3 nM; GI50 (ACHN renal): 244 nM; TGI (TK-10 renal): > 28400 nM; GI50 (K-562 leukemia): 75.3 nM; TGI (K-562 leukemia): > 100000 nM; GI50 (SF-268 CNS): 801 nM; TGI (SF-268 CNS): > 35000 nM; GI50 (SK-OV-3 ovarian): 188 nM; TGI (SK-OV-3 ovarian): > 32200 nM; GI50 (HCC-2998 colon): 192 nM; TGI (HCC-2998 colon): 3390 nM; GI50 (OVCAR-3 ovarian): 102 nM; TGI (OVCAR-3 ovarian): 1340 nM; GI50 (HS 578T breast): 79.8 nM; TGI (HS 578T breast): > 25500 nM; GI50 (IGROV1 ovarian): 164 nM; TGI (IGROV1 ovarian): > 35000 nM; GI50 (COLO 205 colon): 96.4 nM; TGI (COLO 205 colon): 328 nM; GI50 (HOP-62 NSCLC): 145 nM; TGI (HOP-62 NSCLC): > 32000 nM; GI50 (OVCAR-5 ovarian): 220 nM

**Q.** Which results are given for `C=C(C)[C@@]12OC3(/C=C/C=C/CCCCC)O[C@@H]1[C@@H]1[C@@H]4O[C@]4(CO)[C@@H](O)[C@]4(O)C(=O)C(C)=C[C@H]4[C@@]1(O3)[C@H](C)[C@H]2OC(=O)c1ccccc1`?
**A.** GI50 (MDA-MB-468 breast): 1370 nM; TGI (MDA-MB-468 breast): 2920 nM

**Q.** Which GI50 (MDA-MB-468 breast) does the source give for `COC(=O)/C=C/c1cc(O)c2oc(-c3ccc(O)c(O)c3)c(C(=O)OC)c2c1` here?
**A.** 1820 nM

**Q.** What about the TGI (MDA-MB-468 breast) of the same compound?
**A.** 12900 nM

**Q.** `COc1ccc(C(=O)c2cc(OC)c(C)c(OC)c2)cc1OC(=O)CCl` was tested. Which GI50 (MDA-MB-468 breast) did it give?
**A.** 2390 nM

**Q.** And the TGI (MDA-MB-468 breast)?
**A.** 21600 nM

**Q.** With `C=C(C=O)C1CCC2(C(=O)O)CCC3(C)C(CCC4C5(C)CCC(O)C(C)(C)C5CCC43C)C12` (stereo unspecified) as the compound, how does the GI50 (MDA-MB-468 breast) read?
**A.** 3270 nM

**Q.** What about the TGI (MDA-MB-468 breast) of the same compound?
**A.** 20600 nM

**Q.** What does the source list for `CCOc1nc(-c2ccccc2)cc2c(O)c(-c3nnco3)[nH]c(=O)c12`?
**A.** GI50 (MDA-MB-468 breast): 1550 nM; TGI (MDA-MB-468 breast): > 25800 nM

**Q.** For `COc1ccc2c(c1)C(C)Cc1c(Cl)ncnc1N2C` (stereo unspecified), which GI50 (MDA-MB-468 breast) is on record?
**A.** 276 nM

**Q.** What about the TGI (MDA-MB-468 breast) of the same compound?
**A.** 804 nM

**Q.** Which results are given for `COc1ccc(N(C)c2ncnc3occ(C)c23)cc1`?
**A.** GI50 (MDA-MB-468 breast): < 10 nM; TGI (MDA-MB-468 breast): 15400 nM

**Q.** Which results are given for `Cc1nc(N)sc1-c1ccnc(Nc2ccc(N3CCOCC3)cc2)n1`?
**A.** GI50 (MDA-MB-468 breast): 611 nM; TGI (MDA-MB-468 breast): > 100000 nM

**Q.** With `CC(C)(C)C(=O)OCOP(=O)(OCOC(=O)C(C)(C)C)C1CCCN(O)C1=O` (stereo unspecified) as the compound, how does the GI50 (MDA-MB-468 breast) read?
**A.** 977 nM

**Q.** What about the TGI (MDA-MB-468 breast) of the same compound?
**A.** 5480 nM

**Q.** What does the source list for `O=c1n(CC2CO2)c(=O)n(CC2CO2)c(=O)n1CC1CO1` (stereo unspecified)?
**A.** GI50 (MDA-MB-468 breast): 2260 nM; TGI (MDA-MB-468 breast): 11300 nM

**Q.** With `C/C(=C\CCc1ccoc1)CC/C=C(\C)CCCC1=CC(=O)OC1` as the compound, how does the GI50 (MDA-MB-468 breast) read?
**A.** 2190 nM

**Q.** And the TGI (MDA-MB-468 breast)?
**A.** 8410 nM

**Q.** How did the GI50 (MDA-MB-468 breast) turn out when `NC(=NCCCOc1ccc(Cl)cc1)Nc1ccc(C(F)(F)F)cc1` was run?
**A.** 1630 nM

**Q.** And the TGI (MDA-MB-468 breast)?
**A.** 3610 nM

**Q.** `Clc1ccc2c(NCCCNc3nccc(Nc4ccc(Br)cc4)n3)ccnc2c1` was tested. Which GI50 (MDA-MB-468 breast) did it give?
**A.** 1610 nM

**Q.** And the TGI (MDA-MB-468 breast)?
**A.** 3210 nM
